Test results taken from patent US6653316B1, “Substituted polycyclic aryl and heteroaryl pyrimidinones useful for selective inhibition of the coagulation cascade” (Pharmacia Corporation, priority 1999, dated 2003).

Key:
Assay type in all cases: biochemical
[1] = target: T1, recombinant soluble tissue factor and recombinant human factor VIIa (TF-VIIa) (Homo sapiens, UniProt P08709); test: TF-VIIa Assay (chromogenic substrate hydrolysis, OD 405 nm); conditions: cells without % sign; 60 min at room temperature; read-out: IC50 or % Inhibition TF-VIIa (30 μM): IC50
T1 construct: conversion of coagulation factor VII to VIIa by Xa; host or cells: E. coli (soluble TF)
T1 sequence (P08709 213-466 limits assumed): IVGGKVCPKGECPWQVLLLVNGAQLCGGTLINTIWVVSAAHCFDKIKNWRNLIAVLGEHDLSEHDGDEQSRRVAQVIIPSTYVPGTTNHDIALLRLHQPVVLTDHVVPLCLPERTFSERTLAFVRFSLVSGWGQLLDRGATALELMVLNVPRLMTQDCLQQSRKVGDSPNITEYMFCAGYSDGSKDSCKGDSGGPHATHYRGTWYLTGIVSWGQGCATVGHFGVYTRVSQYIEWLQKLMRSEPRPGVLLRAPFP
T1 sequence (P08709 61-212 limits assumed): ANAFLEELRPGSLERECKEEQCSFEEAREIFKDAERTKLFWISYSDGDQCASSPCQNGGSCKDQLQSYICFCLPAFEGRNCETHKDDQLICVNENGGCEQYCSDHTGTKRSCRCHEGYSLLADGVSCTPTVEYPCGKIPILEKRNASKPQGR
T1 sequence (P13726 33-251 partner limits assumed): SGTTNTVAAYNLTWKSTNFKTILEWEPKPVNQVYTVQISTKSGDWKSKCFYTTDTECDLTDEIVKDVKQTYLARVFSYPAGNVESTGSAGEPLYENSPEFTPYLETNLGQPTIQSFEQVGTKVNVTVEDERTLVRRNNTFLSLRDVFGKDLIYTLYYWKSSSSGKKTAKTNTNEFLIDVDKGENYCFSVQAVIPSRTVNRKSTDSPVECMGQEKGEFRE
Procedure: In this assay 100 nM recombinant soluble tissue factor and 2 nM recombinant human factor VIIa are added to a 96-well assay plate containing 0.4 mM of the substrate, N-Methylsulfonyl-D-phe-gly-arg-p-nitroaniline and either inhibitor or buffer (5 mM CaCl2,50 mM Tris-HCl, pH 8.0, 100 mM NaCl, 0.1% BSA). The reaction, in a final volume of 100 ul is measured immediately at 405 nm to determine background absorbance. The plate is incubated at room temperature for 60 min, at which time the rate of hydrolysis of the substrate is measured by monitoring the reaction at 405 nm for the release of p-nitroaniline. Percent inhibition of TF-VIIa activity is calculated from OD405 nm value from the experimental and control sample.
(§1) Recombinant soluble TF, consisting of amino acids 1-219 of the mature protein sequence was expressed in E. coli and purified using a Mono Q Sepharose FPLC. Recombinant human VIIa was purchased from American Diagnostica, Greenwich Conn. and chromogenic substrate N-Methylsulfonyl-D-phe-gly-arg-p-nitroaniline was prepared by American Peptide Company, Inc., Sunnyvale, Calif. Factor Xa was obtained from Enzyme Research Laboratories, South Bend Ind., thrombin from Calbiochem, La Jolla, Calif., and trypsin and L-BAPNA from Sigma, St. Louis Mo. The chromogenic substrates S-2765 and S-2238 were purchased from Chromogenix, Sweden.

[2] = target: human thrombin (Homo sapiens, UniProt P00734); test: Thrombin Assay (chromogenic substrate hydrolysis, OD 405 nm); conditions: for IC50: cells without % sign, 60 min at room temperature, read-out: IC50 or % Inhibition Thrombin II (30 μM): IC50; for inhibition at 100 µM / inhibition at 30 µM: read-out: IC50 or % Inhibition Thrombin II (30 μM): % inhibition
Procedure: 0.28 nM human thrombin and 0.06 mM H-D-Phenylalanyl-L-pipecolyl-L-arginine-p-nitroaniline dihydrochloride are added to a 96-well assay plate containing either inhibitor or buffer (50 mM Tris-HCl, pH 8.0. 100 mM NaCl, 0.1% BSA). The reaction, in a final volume of 100 ul is measured immediately at 405 nm to determine background absorbance. The plate is incubated at room temperature for 60 min, at which time the rate of hydrolysis of the substrate is measured by monitoring the reaction at 405 nm for the release of p-nitroaniline. Percent inhibition of thrombin activity is calculated from OD405 nm value from the experimental and control sample.
as §1

[3] = target: T2, trypsin, type IX from porcine pancreas (Sus scrofa, UniProt P00761); test: Trypsin Assay (L-BAPNA hydrolysis, OD 405 nm); conditions: cells without % sign; 60 min at room temperature; read-out: IC50 or % Inhibition Trpysin II (30 μM): IC50
T2 construct: purchased Sigma, St. Louis Mo. type IX; host or cells: porcine pancreas
T2 sequence (P00761 9-231): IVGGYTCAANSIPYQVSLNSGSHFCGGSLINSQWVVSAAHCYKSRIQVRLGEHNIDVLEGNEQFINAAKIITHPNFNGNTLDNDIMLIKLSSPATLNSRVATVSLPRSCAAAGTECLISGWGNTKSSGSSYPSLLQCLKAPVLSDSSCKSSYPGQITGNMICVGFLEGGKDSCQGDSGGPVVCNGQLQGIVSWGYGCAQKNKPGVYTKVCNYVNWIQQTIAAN
Procedure: 5 ug/ml trypsin, type IX from porcine pancreas and 0.375 mM N-α-Benzoyl-L-arginine-p-nitroanilide (L-BAPNA) are added to a 96-well assay plate containing either inhibitor or buffer (50 mM Tris-HCl, pH 8.0, 100 mM NaCl, 0.1% BSA). The reactions, in a final volume of 100 ul are measured immediately at 405 nm to determine background absorbance. The plate is incubated at room temperature for 60 min, at which time the rate of hydrolysis of the substrate is measured by monitoring the reaction at 405 nm for the release of p-nitroaniline. Percent inhibition of trypsin activity is calculated from OD405 nm value from the experimental and control sample.
as §1

[4] = target: T3, human factor Xa (Homo sapiens, UniProt P00742); test: Xa Assay (chromogenic substrate S-2765 hydrolysis, OD 405 nm)
T3 construct: purchased Enzyme Research Laboratories, South Bend Ind
T3 sequence (P00742 235-488 limits assumed): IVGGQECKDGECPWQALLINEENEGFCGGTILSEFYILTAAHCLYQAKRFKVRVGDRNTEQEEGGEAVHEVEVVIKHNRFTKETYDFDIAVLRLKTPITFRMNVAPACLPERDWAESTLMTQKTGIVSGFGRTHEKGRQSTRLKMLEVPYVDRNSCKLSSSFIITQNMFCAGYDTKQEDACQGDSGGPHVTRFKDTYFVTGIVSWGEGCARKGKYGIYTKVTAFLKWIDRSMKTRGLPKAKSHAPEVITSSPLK
T3 sequence (P00742 41-179 limits assumed): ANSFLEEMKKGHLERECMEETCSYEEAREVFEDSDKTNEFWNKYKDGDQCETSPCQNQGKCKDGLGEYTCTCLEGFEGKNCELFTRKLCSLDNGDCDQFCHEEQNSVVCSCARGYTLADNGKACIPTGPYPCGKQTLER
Procedure: 0.3 nM human factor Xa and 0.15 mM N-α-Benzyloxycarbonyl-D-arginyl-L-glycyl-L-arginine-p-nitroaniline-dihydrochloride (S-2765) are added to a 96-well assay plate containing either inhibitor or buffer (50 mM Tris-HCl, pH 8.0, 100 mM NaCl, 0.1% BSA). The reaction. in a final volume of 100 ul is measured immediately at 405 nm to determine background absorbance. The plate is incubated at room temperature for 60 min, at which time the rate of hydrolysis of the substrate is measured by monitoring the reaction at 405 nm for the release of p-nitroaniline. Percent inhibition of Xa activity is calculated from OD405 nm value from the experimental and control sample.
as §1

[5] = read-out: IC50 or % Inhibition Factor Xa (30 μM): % inhibition

Row | Structure (SMILES) | IC50 [1] [nM] | IC50 [2] [nM] | IC50 [3] [nM] | inhibition at 30 µM [4, 5] [%] | inhibition at 100 µM [2] [%] | IC50 ([4]; cells without % sign, 60 min at room temperature, read-out: IC50 or % Inhibition Factor Xa (30 μM): IC50) [nM] | inhibition at 100 µM ([4]; @100 μM, read-out: IC50 or % Inhibition Factor Xa (30 μM): % inhibition) [%] | inhibition at 30 µM [2] [%]
1 | N=C(N)c1ccc(CNC(=O)Cn2c(-c3ccccc3)ncc(NS(=O)(=O)Cc3ccccc3)c2=O)cc1 [Example 1] | 15400 | 22400 | 500 | – | – | – | – | –
2 | N=C(N)c1ccc(CNC(=O)Cn2c(-c3ccccc3)ncc(NCCc3ccccc3)c2=O)cc1 [Example 3] | 1000 | – | 600 | – | – | – | – | –
3 | CC(C)Nc1cnc(-c2cccc(N)c2)n(CC(=O)NCc2ccc(C(=N)N)cc2)c1=O [Example 6] | 50 | – | < 40 | 33 | – | – | – | 43
4 | N=C(N)c1cccc(CNC(=O)Cn2c(-c3ccccc3)ncc(NS(=O)(=O)Cc3ccccc3)c2=O)c1 [Example 2] | – | > 30000 | – | – | – | – | – | –
5 | N=C(N)c1ccc(CNC(=O)Cn2c(-c3cccc(N)c3)ncc(NC3CCC3)c2=O)cc1 [Example 8] | 80 | – | 40 | 15 | – | – | – | 42

Further lines, with some results ahead:

Row | IC50 [1] [nM] | IC50 [2] [nM] | IC50 [3] [nM] | inhibition at 30 µM [4, 5] [%] | inhibition at 100 µM [2] [%] | IC50 ([4]; cells without % sign, 60 min at room temperature, read-out: IC50 or % Inhibition Factor Xa (30 μM): IC50) [nM] | inhibition at 100 µM ([4]; @100 μM, read-out: IC50 or % Inhibition Factor Xa (30 μM): % inhibition) [%] | Structure (SMILES) | inhibition at 30 µM [2] [%]
6 | 700 | 11300 | 40 | 33 | – | – | – | CC(C)Nc1cnc(-c2cccnc2)n(CC(=O)NCc2ccc(C(=N)N)cc2)c1=O [Example 7] | –
7 | 80 | – | 30 | – | 41 | 85000 | – | COC(=O)c1cc(N)cc(-c2ncc(NC(C)C)c(=O)n2CC(=O)NCc2ccc(C(=N)N)cc2)c1 [Example 20] | –
8 | 70 | – | 50 | – | 26 | – | 15 | CC(C)Nc1cnc(-c2cc(N)cc(C(=O)O)c2)n(CC(=O)NCc2ccc(C(=N)N)cc2)c1=O [Example 21] | –
